The values below come from patent publication US20190308956A1, “PIPERAZINE DERIVATIVES AS ANTIVIRAL AGENTS WITH INCREASED THERAPEUTIC ACTIVITY” (SERVICIO ANDALUZ DE SALUD, priority 2016, published 2019).

The test system of one data set is HAdV5-GFP. Put plainly: Plaque assay, HAdV5-GFP in 293β5 cells. In kind it is cell-based. The note with it: read-out: Percentage of plaque formation inhibition, HAdV5-GFP, 10 μM, 293β5 cell line. The method, then:
1.5. Plaque assay. For low MOI infections, active compounds were further evaluated in a plaque assay. 293β5 cells were seeded in 6-well plates at 4×10^5 cells per well in duplicate for each condition. When cells reached 80-90% confluency, they were infected with HAdV5-GFP or HAdV16-GFP (0.06 vp/cell) and rocked for 2 h at 37° C. The inoculum was removed and the cells were washed once with PBS. The cells were then carefully overlaid with 4 ml/well of equal parts of 1.6% […] Difco Agar Noble (Becton, Dickinson & Co, Sparks, MD) and 2× EMEM (BioWhittaker) supplemented with 2x penicillin/streptomycin, 2× L-glutamine and 10% FBS. The mixture also contained compound in concentrations ranging from 5 to 1 μM. Following incubation for 7 days at 37° C., plates were scanned with a Typhoon 9410 imager (GE Healthcare Life Sciences), and plaques were quantified with ImageJ.43
For the plaque assay 293β5 cells were infected with HAdV5-GFP (in the presence of compound at 10 μM) (Table 2). From this generation of compounds, our primary screening identified 4 compounds (12, 13, 22 and 25) that inhibited HAdV5-GFP plaque formation >90% compared to a control with the same volume of DMSO.

Data set [1] is described as follows: Cytotoxicity assay (alamarBlue cell viability). The class given is cell-based, Human. The note with it: human, A549 cells. As to the method: 1.4. Cytotoxicity assay. The cytotoxicity of the compounds was measured using the AlarmBlue cell viability assay (Invitrogen) according to the manufacturer's instructions. Actively dividing A549 cells were incubated with compounds for 48 h. After the incubation the alamarBlue reagent was added to the cells ( 1/10th alamarBlue reagent in culture medium) for an extra 4 h. The 50% cell cytotoxic concentration (CC50) of the molecules was calculated according to Cheng et al.42 The selectivity index (SI) was evaluated as the ratio of CC50 to IC50, where the IC50 is defined as the concentration of compound that inhibits HAdV infection by 50%.

In data set [2] the test system is Acinetobacter baumannii strains resistant to colistine. Put plainly: Screening of inhibition of bacterial growth at 50 μM. In kind it is cell-based. The note with it: 5×10^5 CFU/ml, 18 h; for Screening, growth inhibition Ab 21R: strain Ab 21R; for Screening, growth inhibition Ab 21R / Screening, growth inhibition Ab 22P: 50 μM; for Screening, growth inhibition Ab 22P: strain Ab 22P; for Screening, growth inhibition Ab 24: strain Ab 24, 50 μM. The source says:
(§1) All of the strains used were Acinetobacter baumannii strains resistant to colistine: Resistance (R)≥4 Sensibility (S)≤2—All of these strains have been disclosed in Valencia R, Arroyo L A, Conde M, Aldana J M, Torres M J, Fernandez-Cuenca F, et al. Nosocomial outbreak of infection with pan-drug-resistant Acinetobacter baumannii in a tertiary care university hospital. Infection control and hospital epidemiology. 2009; 30(3):257-63. The specific strains used were the following: 1, 10, 11, 14, 16, 17, 19, 20, 21R, 22P, 24, 99 and 113.
Evaluation of the inhibition of the bacterial growth of the 4 families of piperazines derivatives was performed by using a final concentration of 50 μM of each piperazine derivative in a concentration of 5×10^5 CFU/ml of each strain of A. baumannii in 96-well plates.
These plates were incubated for 18 hours at 37° C.

The test system is the same in data set [3]. The data set can be described thus: Minimal inhibitory concentration (MIC), microdilution in MHBII. The class given is cell-based. The settings on record: 5×10^5 CFU/ml, 18 h; for CMI (MIC) Ab 21R: strain Ab 21R; for CMI (MIC) Ab 21R / CMI (MIC) Ab 22P: MHBII; for CMI (MIC) Ab 22P: strain Ab 22P; for CMI (MIC) Ab 24: strain Ab 24, MHBII.
From the text: as §1
Microdilution in cell medium Mueller Hinton Broth II (MHBII). This technique was carried out solely in those piperazines which presented inhibitory activity in the screening study.
We used decreasing concentrations of each piperazine derivative (from 50 μM -0.05 μM) in a concentration of 5×10^5 CFU/ml of each strain of A. baumannii in 96 well plates. These plates were incubated for 18 hours at a temperature 37° C.

`CC(C)(C)OC(=O)N1CCN(C(=O)Nc2ccccc2[N+](=O)[O-])C(c2ccccc2)C1` (stereo not drawn) [Compound 51, 4-tert-Butoxycarbonyl-1-[(2-nitrophenyl)aminocarbonyl]-2-phenylpiperazine]: the inhibition at 10 µM in the data set with HAdV5-GFP amounted to 100%. In data set [1] (48 h), this compound registered a CC50 at 48 h of 82.2 ± 9.06 µM.
Taken in the same sequence, the figures for `CC1CN(C(=O)OC(C)(C)C)CCN1C(=S)Nc1ccc([N+](=O)[O-])cc1` (stereo not drawn) [Compound 12, 4-tert-Butoxycarbonyl-2-methyl-1-[(4-nitrophenyl)aminothiocarbonyl]piperazine] were above 90% and 26.3 ± 1.59 µM.
Turning to `CC1CN(C(=O)C(C)(C)C)CCN1C(=S)Nc1ccc([N+](=O)[O-])cc1` (stereo not drawn) [Compound 17, 2-Methyl-1-[(4-nitrophenyl)aminothiocarbonyl]-4-pivaloylpiperazine], the inhibition at 10 µM in the data set on HAdV5-GFP stood at 64 ± 8.97%.
Turning to `CC1CN(C(=O)OC(C)(C)C)CCN1C(=O)Nc1ccc(C(F)(F)F)cc1` (stereo not drawn) [Compound 28, 4-tert-Butoxycarbonyl-2-methyl-1-[(4-trifluoromethylphenyl)aminocarbonyl]piperazine], the inhibition at 10 µM in the data set with HAdV5-GFP was 30.6 ± 14.6%. In data set [1] (48 h), the CC50 at 48 h came out at 137 ± 24.3 µM.
For `CC(C)(C)OC(=O)N1CCN(C(=O)Nc2ccc(Cl)c(C(F)(F)F)c2)C(c2ccccc2)C1` (stereo not drawn) [Compound 53, 4-tert-Butoxycarbonyl-1-[(4-chloro-3-trifluoromethylphenyl)aminocarbonyl]-2-phenylpiperazine], in that order: 100% and 27.5 µM.
On to `COc1ccc(C(=O)N2CCN(C(=O)c3ccccc3)CC2C)cc1` (stereo not drawn) [Compound 21, 4-Benzoyl-1-(4-methoxybenzoyl)-2-methylpiperazine], for which the inhibition at 10 µM in the data set with HAdV5-GFP amounted to 0%.
In the case of `CC1CN(C(=O)c2ccccc2)CCN1C(=S)Nc1ccc([N+](=O)[O-])cc1` (stereo not drawn) [Compound 22, 4-Benzoyl-2-methyl-1-[(4-nitrophenyl)aminothiocarbonyl]piperazine], in the data set with HAdV5-GFP, the inhibition at 10 µM was above 90%. For the same compound, the half-maximal cytotoxic concentration (CC50) at 48 h in data set [1] (48 h) was found to be 31.4 ± 2.82 µM.
Taken in the same sequence, the figures for `CC1CN(C(=O)c2cc3ccccc3o2)CCN1C(=O)Nc1ccc(Cl)cc1` (stereo not drawn) [Compound 32, 4-(Benzofuran-2-carbonyl)-1-[(4-chlorophenyl)aminocarbonyl]-2-methylpiperazine] were 6.69 ± 11.1% and 144 ± 20.8 µM.
Consider `CC1CN(C(=O)OC(C)(C)C)CCN1C(=S)Nc1ccc([N+](=O)[O-])cc1` (stereo not drawn) [Vip 499], for which, in data set [2] (strain Ab 14, 50 μM), the “Screening, growth inhibition Ab 14” value was below 50 µM. In data set [2], the “Screening, growth inhibition Ab 21R” value was below 50 µM; the “Screening, growth inhibition Ab 22P” value was below 50 µM; the “Screening, growth inhibition Ab 24” value is below 50 µM. In data set [3] (strain Ab 14, MHBII), the “CMI (MIC) Ab 14” value was 25 µM. Besides, in data set [3], the “CMI (MIC) Ab 21R” value stood at 50 µM, the “CMI (MIC) Ab 22P” value came out at 25 µM and the “CMI (MIC) Ab 24” value worked out at 25 µM.
On to `COc1ccc(NC(=O)N2CCN(C(=O)OC(C)(C)C)CC2c2ccccc2)cc1` (stereo not drawn) [Compound 54, 4-tert-Butoxycarbonyl-1-[(4-methoxyphenyl)aminocarbonyl]-2-phenylpiperazine], for which, in the data set on HAdV5-GFP, the inhibition at 10 µM was determined as 78.9 ± 1.57%. The CC50 at 48 h in data set [1] (48 h) was found to be 133 ± 58.8 µM.
Consider `CC1CN(C(=O)OC(C)(C)C)CCN1C(=O)Nc1ccc([N+](=O)[O-])cc1` (stereo not drawn) [Compound 13, 4-tert-Butoxycarbonyl-2-methyl-1-[(4-nitrophenyl)aminocarbonyl]piperazine], for which the inhibition at 10 µM in the data set on HAdV5-GFP is above 90%. In data set [1] (48 h), this compound yielded a CC50 at 48 h of 143 ± 3.29 µM.
For the compound `CC(C)(C)OC(=O)N1CCN(C(=O)Nc2ccc(C#N)cc2)C(c2ccccc2)C1` (stereo not drawn) [Compound 50, 4-tert-Butoxycarbonyl-1-[(4-cyanophenyl)aminocarbonyl]-2-phenylpiperazine], the inhibition at 10 µM in the data set on HAdV5-GFP stood at 67.2 ± 16.5%. The compound also registered a CC50 at 48 h in data set [1] (48 h) of 91.3 ± 61.5 µM.
For the compound `CC1CN(C(=O)c2cc3ccccc3o2)CCN1C(=O)Nc1ccccc1Br` (stereo not drawn) [Compound 38, 4-(Benzofuran-2-carbonyl)-1-[(2-bromophenyl)aminocarbonyl]-2-methylpiperazine], in the data set on HAdV5-GFP, the inhibition at 10 µM was 55.8 ± 19.5%.
Take `CC(C)(C)OC(=O)N1CCN(C(=O)Nc2ccc(F)cc2)C(c2ccccc2)C1` (stereo not drawn) [Compound 49, 4-tert-Butoxycarbonyl-1-[(4-fluorophenyl)aminocarbonyl]-2-phenylpiperazine]: the inhibition at 10 µM with HAdV5-GFP was found to be 75.84 ± 0.49%. Besides, in data set [1] (48 h), the midpoint of cytotoxicity, the CC50 at 48 h, lay at 110 ± 8.09 µM.
In the case of `C[C@@H]1CN(C(=O)CC2CCCCC2)CCN1C(=S)Nc1cc(C(F)(F)F)cc(C(F)(F)F)c1` [Compound R-615], the “Screening, growth inhibition Ab 24” value in data set [2] is below 50 µM. Also, in data set [3], the “CMI (MIC) Ab 24” value worked out at 6.25 µM.
Take `CC1CN(C(=O)c2cc3ccccc3o2)CCN1C(=O)Nc1ccccc1[N+](=O)[O-]` (stereo not drawn) [Compound 36, 4-(Benzofuran-2-carbonyl)-2-methyl-1-[(2-nitrophenyl)aminocarbonyl]piperazine]: the inhibition at 10 µM in the data set on HAdV5-GFP lay within 91 to 100%. For the same compound, the CC50 at 48 h in data set [1] was above 200 µM; in data set [1] (48 h), 203 ± 4.09 µM.
In the case of `C[C@H]1CN(C(=O)OC(C)(C)C)CCN1C(=S)Nc1cc(C(F)(F)F)cc(C(F)(F)F)c1` [Compound S-592], in data set [2], the “Screening, growth inhibition Ab 21R” value was below 50 µM; the “Screening, growth inhibition Ab 22P” value is below 50 µM; the “Screening, growth inhibition Ab 24” value was below 50 µM. Moreover, in data set [3], the “CMI (MIC) Ab 21R” value was found to be 3.12 µM, the “CMI (MIC) Ab 22P” value was found to be 12.5 µM and the “CMI (MIC) Ab 24” value worked out at 3.12 µM.
For the compound `COc1ccc(NC(=O)N2CCN(C(=O)C(C)(C)C)CC2C)cc1` (stereo not drawn) [Compound 19, 1-[(4-Methoxyphenyl)aminocarbonyl]-2-methyl-4-pivaloylpiperazine], the inhibition at 10 µM in the data set with HAdV5-GFP was determined as 0%.
As to `CC1CN(C(=O)c2cc3ccccc3o2)CCN1C(=O)Nc1ccccc1` (stereo not drawn) [Compound 41, 4-(Benzofuran-2-carbonyl)-2-methyl-1-(phenylaminocarbonyl)piperazine], the inhibition at 10 µM in the data set with HAdV5-GFP amounted to 11.2 ± 26.5%.
On to `COc1ccccc1NC(=O)N1CCN(C(=O)c2cc3ccccc3o2)CC1C` (stereo not drawn) [Compound 40, 4-(Benzofuran-2-carbonyl)-1-[(2-methoxyphenyl)aminocarbonyl]-2-methylpiperazine], for which the inhibition at 10 µM in the data set with HAdV5-GFP was 16.4 ± 5.81%.
Turning to `COc1ccc(NC(=O)N2CCN(C(=O)c3ccccc3)CC2C)cc1` (stereo not drawn) [Compound 24, 4-Benzoyl-1-[(4-methoxyphenyl)aminocarbonyl]-2-methylpiperazine], the inhibition at 10 µM with HAdV5-GFP was 0%.
As for `COc1ccc(NC(=O)N2CCN(C(=O)OC(C)(C)C)CC2C)cc1` (stereo not drawn) [Compound 14, 4-tert-Butoxycarbonyl-1-[(4-methoxyphenyl)aminocarbonyl]-2-methylpiperazine], the inhibition at 10 µM in the data set with HAdV5-GFP stood at 49.1 ± 1.39%.
Same read-out and setting: the value for `CC1CN(C(=O)c2ccccc2)CCN1C(=O)Nc1ccc([N+](=O)[O-])cc1` (stereo not drawn) [Compound 23, 4-Benzoyl-2-methyl-1-[(4-nitrophenyl)aminocarbonyl]piperazine] was 71.7 ± 3.43%.
As for `C[C@@H]1CN(C(=O)OC(C)(C)C)CCN1C(=S)Nc1cc(C(F)(F)F)cc(C(F)(F)F)c1` [Compound R-592], the “Screening, growth inhibition Ab 21R” value in data set [2] was below 50 µM. The “CMI (MIC) Ab 21R” value in data set [3] amounted to 3.12 µM.
`CC1CN(C(=O)C(C)(C)C)CCN1C(=O)Nc1ccc([N+](=O)[O-])cc1` (stereo not drawn) [Compound 18, 2-Methyl-1-[(4-nitrophenyl)aminocarbonyl]-4-pivaloylpiperazine]: in the data set on HAdV5-GFP, the inhibition at 10 µM stood at 0%.
